In brackets after ≈: the same amount, converted by molar mass. Like-named read-outs stand apart in the source and are kept apart here.
Legend:
TRPV1 expressing neurons = molecular target: T1, TRPV1 expressing neurons (Rattus norvegicus, UniProt O35433); assay: Ca2+ fluorescence measurements in cultured dorsal root ganglia neurones; type: cell-based
T1 construct: Adult rats were terminally anaesthetized and decapitated; Dorsal root ganglia were removed; endogenous in cells; host or cells: primary cultured adult rat dorsal root ganglia neurons
Procedure: Adult rats were terminally anaesthetized and decapitated. […] The ganglia, placed in cold DMEM supplemented with 10% fetal bovine serum, 2 mM L-glutamine, 100 U/ml penicillin and 100 µg/ml streptomycin, were dissociated in single cells by several passages through a series of syringe needles (23G down to 25G). The medium and the ganglia were filtered to remove debris, topped up with 8 ml of DMEM medium and centrifuged (200 x g for 5 min). […] The cells were then washed twice with the Ca^2+ buffer solution and transferred to a chamber on the stage of a Nikon eclipse TE300 microscope. […] A calibration curve was set up using buffer containing Fura-2-AM-ester and determinant concentrations of free Ca^2+. This curve was then used to convert the data obtained from the F340/F380 ratio to [Ca^2+]¡ (nM).

[1] = Body temperature measurements; type: in vivo, rat; settings: 30 µmol/kg orally; for body temperature change: monitored for more than 3 hours
Procedure: Rats were placed in individual cages at room temperature (22-25°C). Rectal temperatures were recorded from awake animals by repeated insertion of a lubricated rectal thermocouple probe (model-8402-00, Cole-Palmer Instrument Company) prior to and following orally administration of V405 at 30 µmil/kg.

[2] = Thermodynamic solubility in PBS; type: physicochemical; settings: phosphate buffer pH 7.4, room temperature, stirring 36h, HPLC
Procedure: The standard solution was prepared by dissolving 1.4 mg of V405 in 10 mL of acetonitrile. A saturated solution of V405 was prepared by stirring 10 mL of phosphate buffer pH 7.4 in the presence of 10 mg of compound. The stirring was conducted at room temperature for 36h. The supernatant was filtered through a Millipore […] filter and 10 µL were used as sample for the HPLC determination. (Eluents: A = Water with 0.1% TFA, B = Acetonitrile + 0.1% TFA, Gradient: 0-100% B in 25 min, Column: SYMMETRY 300 C18 5 µM; 4,6 X 150 MM, […]). The solubility was determined by the following relationship: C'= percent area' C/percent area where C= concentration of standard solution (mg/ml), percent area': area of the peak of standard solution, percent area: area of the peak of saturated solution, C'= concentration of the saturated solution. The solubility was then expressed as […].

[3] = molecular target: T2, TRPV1 expressed in rat spinal cord (Rattus norvegicus, UniProt O35433); assay: Radioligand binding assay ([3H]-RTX, spinal cord membranes)
T2 construct: the spinal cord was removed and disrupted using a Polytron tissue homogenizer; from tissue; host or cells: rat spinal cord membranes
Procedure: Male Sprague-Dawley rats with body weight between 250 to 350 g at the time for testing were used. For binding assays rats were sacrificed by decapitation under anesthesia and the spinal cord was removed and disrupted using a Polytron tissue homogenizer in ice cold buffer containing 5 mM KCl, 5.8 mM NaCl, 0.75 mM CaCl2, 2 mM MgCl2, 320 mM sucrose, 10 mM Hepes, pH 8.6.^5 The homogenized tissue was centrifuged at 1000 x g for 10 min at 4°C and the supernatant was centrifuged again at 35000 x g for 30 min at 4°C (Beckman Avanti J25). The pellet was resuspended in the same buffer as described above and used in binding experiments. In saturation experiments, 150 µg protein/sample from membrane suspensions were incubated with [^3H]-Resiniferatoxin ([^3H]-RTX) (0.003-3 nM) in the assay buffer containing 0.25 mg/ml fatty acid-free bovine serum albumin at 37°C for 60 min. In competition experiments, the membranes were incubated at 37°C for 60 min with [^3H]RTX (0.4 nM) and with increasing concentrations (from 0.1 nM to 3 µM) of examined compounds.
Non specific binding was evaluated in the presence of 1 µM RTX. After incubation the reaction mixture was cooled at 0°C and incubated with bovine α1-acid glycoprotein (200 µg per tube) for 15 min to reduce non-specific RTX binding. Membrane-bound RTX was separated from free RTX by centrifuging the samples at 18500 x g for 15 min. The tip of the microcentrifuge tube containing the pellet was cut off and the radioactivity was determined by scintillation counting (Packard 2500 TR). Protein concentration was determined according to a Bio-Rad method with bovine serum albumin as a standard reference (Bradford, 1976). Saturation and competition studies were analyzed with the Ligand program.

[4] = test system: six of the major human liver cytochromes P450 (CYP) enzymes; assay: Cytochrome P450 inhibition, whole panel (qualitative statement); type: in vitro ADME; settings: panel of six CYPs, each concentration tested (0.1-10 µM)
Procedure: (§1) A microtiter plate-based, direct, fluorometric assay was performed to analyze V405 inhibition potential of activities catalyzed by six of the major human liver cytochromes P450 (CYP) enzymes: CYP1A2, CYP2C9, CYP2C19, CYP2D6, CYP2E1 and CYP3A4. The six cytochrome P450 subtypes inhibition was tested from 0.1 µM to10 µM.
(§2) Four dilution points were evaluated (10 µM, 2.15 µM, 0.46 µM and 0.1 µM). A lid was placed on the plate and plate was placed at 37°C in a plate incubator for at least 10 minutes (to pre-warm the buffer and the plate). The reaction started when 0.1 mL enzyme/substrate solution mix was added to test wells. The plate was mixed and the reaction was continued incubating the lid-covered plate at 37°C for the desired time.
(§3) A stop solution was then added to all wells. and an enzyme/substrate mix was dispensed to the inverted blank wells (negative controls).
(§4) >The IC50 was calculated with a typical logistic curve fitting : % Inib = (Min-Max)/(1 + ((Conc)/(IC50)())^p) + Max [formula]

CYP2C19 = CYP2C19 (Homo sapiens, UniProt P33261); assay: Fluorometric cytochrome P450 inhibition assay; type: in vitro ADME; settings: tested from 0.1 µM to 10 µM, 37°C, read-out: Cytochrome P450 subtypes µM inhibition (estimated IC50) CYP2C19
Procedure: as §1, §2, §3, §4

CYP2D6 = CYP2D6 (Homo sapiens, UniProt P10635); assay: Fluorometric cytochrome P450 inhibition assay; type: in vitro ADME; settings: tested from 0.1 µM to 10 µM, 37°C, read-out: Cytochrome P450 subtypes µM inhibition (estimated IC50) CYP2D6
Procedure: as §1, §2, §3, §4

CYP1A2 = molecular target: T3, CYP1A2 (Homo sapiens, UniProt P05177); assay: Fluorometric cytochrome P450 inhibition assay; type: in vitro ADME; settings: tested from 0.1 µM to 10 µM, 37°C, read-out: Cytochrome P450 subtypes µM inhibition (estimated IC50) CYP1A2
T3 sequence (P05177 1-516): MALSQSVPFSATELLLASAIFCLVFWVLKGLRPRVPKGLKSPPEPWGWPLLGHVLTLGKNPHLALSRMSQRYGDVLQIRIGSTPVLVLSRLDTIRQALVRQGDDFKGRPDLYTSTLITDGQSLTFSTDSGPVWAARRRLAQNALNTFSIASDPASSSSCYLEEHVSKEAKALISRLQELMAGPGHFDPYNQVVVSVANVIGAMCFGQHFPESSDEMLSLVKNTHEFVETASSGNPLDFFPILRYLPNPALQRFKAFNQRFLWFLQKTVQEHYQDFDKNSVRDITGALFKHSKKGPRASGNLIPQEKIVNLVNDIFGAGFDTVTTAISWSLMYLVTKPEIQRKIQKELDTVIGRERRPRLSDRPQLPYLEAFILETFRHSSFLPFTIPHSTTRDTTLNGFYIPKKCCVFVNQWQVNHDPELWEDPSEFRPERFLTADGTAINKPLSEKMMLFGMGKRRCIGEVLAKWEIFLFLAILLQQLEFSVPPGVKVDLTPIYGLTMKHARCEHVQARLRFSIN
Procedure: as §1, §2, §3, §4

CYP2C9 = CYP2C9 (Homo sapiens, UniProt P11712); assay: Fluorometric cytochrome P450 inhibition assay; type: in vitro ADME; settings: tested from 0.1 µM to 10 µM, 37°C, read-out: Cytochrome P450 subtypes µM inhibition (estimated IC50) CYP2C9
Procedure: as §1, §2, §3, §4

CYP3A4 = CYP3A4 (Homo sapiens, UniProt P08684); assay: Fluorometric cytochrome P450 inhibition assay; type: in vitro ADME; settings: tested from 0.1 µM to 10 µM, 37°C, read-out: Cytochrome P450 subtypes µM inhibition (estimated IC50) CYP3A4
Procedure: as §1, §2, §3, §4

CYP2E1 = CYP2E1 (Homo sapiens, UniProt P05181); assay: Fluorometric cytochrome P450 inhibition assay; type: in vitro ADME; settings: tested from 0.1 µM to 10 µM, 37°C, read-out: Cytochrome P450 subtypes µM inhibition (estimated IC50) CYP2E1
Procedure: as §1, §2, §3, §4

[5] = Capsaicin-induced secondary allodynia; type: in vivo, rat; settings: 30 µmol/kg orally 2 hours prior to capsaicin (5 nmols/50 µl/paw); 30 min after capsaicin challenge
Procedure: Capsaicin (5 nmols/50 µl/paw) was injected in the plantar surface of the glabrous skin of the right paw of rats anesthetized with diethyl ether (Chaplan et al., 1994). Compound V405 was orally administrated (30 µmol/kg) 2 hours prior to capsaicin injection. Tactile allodynia was evaluated 30 min after capsaicin challenge.

[6] = 0.1 µM capsaicin; mean and 95% fiducial limits; read-out: IC50 of inhibition of capsaicin-evoked [Ca2+]i mobilization

T2 sequence (O35433 whole entry): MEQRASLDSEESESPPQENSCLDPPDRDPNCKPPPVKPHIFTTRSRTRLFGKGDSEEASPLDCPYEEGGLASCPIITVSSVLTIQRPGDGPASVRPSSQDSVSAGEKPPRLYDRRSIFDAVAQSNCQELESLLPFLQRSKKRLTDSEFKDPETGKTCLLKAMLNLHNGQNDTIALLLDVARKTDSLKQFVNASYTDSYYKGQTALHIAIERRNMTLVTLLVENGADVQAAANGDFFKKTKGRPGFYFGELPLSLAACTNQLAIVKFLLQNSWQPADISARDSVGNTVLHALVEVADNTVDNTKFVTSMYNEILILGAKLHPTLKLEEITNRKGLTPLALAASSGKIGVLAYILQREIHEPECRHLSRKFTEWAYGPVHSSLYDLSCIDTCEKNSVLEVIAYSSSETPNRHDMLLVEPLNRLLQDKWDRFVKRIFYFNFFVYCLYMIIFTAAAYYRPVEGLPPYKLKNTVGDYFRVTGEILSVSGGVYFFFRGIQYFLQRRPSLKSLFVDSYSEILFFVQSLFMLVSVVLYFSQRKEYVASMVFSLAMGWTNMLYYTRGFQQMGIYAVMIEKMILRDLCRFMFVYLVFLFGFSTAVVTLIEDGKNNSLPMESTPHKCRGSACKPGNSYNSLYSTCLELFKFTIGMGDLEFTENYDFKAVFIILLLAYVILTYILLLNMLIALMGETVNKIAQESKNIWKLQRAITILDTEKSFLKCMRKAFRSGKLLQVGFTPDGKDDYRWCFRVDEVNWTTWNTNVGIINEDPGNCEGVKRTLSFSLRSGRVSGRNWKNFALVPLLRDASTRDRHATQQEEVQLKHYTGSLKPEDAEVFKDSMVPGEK
T1 sequence (O35433 whole entry): as above
Sequence of CYP2D6 (P10635 whole entry): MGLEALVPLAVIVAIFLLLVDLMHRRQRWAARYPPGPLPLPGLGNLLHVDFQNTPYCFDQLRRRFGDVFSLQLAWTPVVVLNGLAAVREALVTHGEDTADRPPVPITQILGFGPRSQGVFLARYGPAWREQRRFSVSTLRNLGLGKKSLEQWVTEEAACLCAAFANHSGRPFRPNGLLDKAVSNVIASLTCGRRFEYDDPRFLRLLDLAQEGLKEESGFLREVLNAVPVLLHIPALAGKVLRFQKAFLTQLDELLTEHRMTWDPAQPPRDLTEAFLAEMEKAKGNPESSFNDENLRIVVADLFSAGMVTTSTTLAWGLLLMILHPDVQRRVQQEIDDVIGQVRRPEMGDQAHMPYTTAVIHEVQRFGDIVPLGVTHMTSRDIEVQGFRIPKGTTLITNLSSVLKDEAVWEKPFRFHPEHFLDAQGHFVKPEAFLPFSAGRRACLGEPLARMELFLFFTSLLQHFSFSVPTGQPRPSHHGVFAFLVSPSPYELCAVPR
Sequence of CYP2C19 (P33261 whole entry): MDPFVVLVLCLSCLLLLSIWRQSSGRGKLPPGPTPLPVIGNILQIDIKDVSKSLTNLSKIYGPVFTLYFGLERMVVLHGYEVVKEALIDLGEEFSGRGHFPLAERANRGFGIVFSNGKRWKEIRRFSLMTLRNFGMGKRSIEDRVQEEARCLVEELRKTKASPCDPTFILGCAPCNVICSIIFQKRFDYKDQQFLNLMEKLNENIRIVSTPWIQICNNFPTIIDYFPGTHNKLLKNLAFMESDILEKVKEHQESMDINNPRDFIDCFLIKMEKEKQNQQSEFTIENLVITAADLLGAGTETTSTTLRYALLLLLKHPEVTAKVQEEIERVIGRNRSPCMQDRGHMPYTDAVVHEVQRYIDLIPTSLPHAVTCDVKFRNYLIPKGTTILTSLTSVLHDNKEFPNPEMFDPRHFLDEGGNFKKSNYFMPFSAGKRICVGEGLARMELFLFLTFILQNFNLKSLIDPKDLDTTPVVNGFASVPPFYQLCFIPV
Sequence of CYP2E1 (P05181 whole entry): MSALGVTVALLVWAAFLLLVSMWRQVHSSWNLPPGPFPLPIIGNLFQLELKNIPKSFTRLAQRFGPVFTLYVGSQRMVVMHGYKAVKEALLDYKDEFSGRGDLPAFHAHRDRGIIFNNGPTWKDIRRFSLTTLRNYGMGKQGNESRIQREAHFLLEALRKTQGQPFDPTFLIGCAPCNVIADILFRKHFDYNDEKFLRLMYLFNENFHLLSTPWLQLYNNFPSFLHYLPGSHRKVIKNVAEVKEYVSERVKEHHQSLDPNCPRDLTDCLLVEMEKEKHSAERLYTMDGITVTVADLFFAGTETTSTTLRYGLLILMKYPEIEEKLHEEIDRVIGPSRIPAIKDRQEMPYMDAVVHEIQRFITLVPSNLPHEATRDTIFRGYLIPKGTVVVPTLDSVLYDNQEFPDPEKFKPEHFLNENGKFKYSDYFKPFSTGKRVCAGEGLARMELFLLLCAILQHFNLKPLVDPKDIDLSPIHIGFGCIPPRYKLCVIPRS
Sequence of CYP3A4 (P08684 whole entry): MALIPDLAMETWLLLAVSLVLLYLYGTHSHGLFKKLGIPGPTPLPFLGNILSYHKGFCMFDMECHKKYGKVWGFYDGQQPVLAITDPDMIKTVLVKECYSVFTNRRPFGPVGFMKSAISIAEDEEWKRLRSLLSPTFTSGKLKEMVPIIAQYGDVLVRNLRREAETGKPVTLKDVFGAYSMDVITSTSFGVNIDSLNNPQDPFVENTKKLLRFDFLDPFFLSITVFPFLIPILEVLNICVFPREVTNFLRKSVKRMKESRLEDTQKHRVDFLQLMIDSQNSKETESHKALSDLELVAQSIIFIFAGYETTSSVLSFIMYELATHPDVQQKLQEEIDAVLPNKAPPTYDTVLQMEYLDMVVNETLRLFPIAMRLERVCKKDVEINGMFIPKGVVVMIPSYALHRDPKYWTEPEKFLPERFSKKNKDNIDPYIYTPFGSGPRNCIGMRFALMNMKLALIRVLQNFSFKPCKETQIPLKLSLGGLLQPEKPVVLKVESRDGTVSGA
Sequence of CYP2C9 (P11712 whole entry): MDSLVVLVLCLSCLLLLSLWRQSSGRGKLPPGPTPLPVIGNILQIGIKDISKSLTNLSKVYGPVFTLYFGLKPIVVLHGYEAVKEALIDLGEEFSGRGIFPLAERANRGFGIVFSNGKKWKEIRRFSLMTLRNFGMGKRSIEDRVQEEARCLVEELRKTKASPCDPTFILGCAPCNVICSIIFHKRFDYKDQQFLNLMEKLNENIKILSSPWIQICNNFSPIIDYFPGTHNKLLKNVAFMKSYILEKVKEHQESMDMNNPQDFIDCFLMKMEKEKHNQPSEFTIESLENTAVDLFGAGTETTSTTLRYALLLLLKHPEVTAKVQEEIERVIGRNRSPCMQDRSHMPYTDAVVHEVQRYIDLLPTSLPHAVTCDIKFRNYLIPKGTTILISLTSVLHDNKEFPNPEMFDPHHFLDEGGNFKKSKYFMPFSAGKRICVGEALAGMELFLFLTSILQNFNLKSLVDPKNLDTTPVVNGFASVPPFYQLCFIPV

Oc1cc2c(cc1O)CN(C(=S)NCCc1ccc(Cl)cc1)CCC2 [capsazepine]
IC50 (TRPV1 expressing neurons; [6]): 948 nM

O=C(Nc1ccc(Cl)cc1)c1ccc(-c2cccc3cnccc23)nc1 [non-oxidized homologous, N-(4-chlorophenyl)-6-(isoquinolin-5-yl)pyridine-3-carboxamide, reference compound]
temperature increase (mean value) with respect to control animals ([1]; during the whole experiment (more than 3 hours)): +0.5 °C
Thermodynamic solubility [2]: not soluble

COc1cccc(NC(=O)/C=C/c2ccc(Cl)cc2)c1 [SB-366791, (E)-3-(4-chlorophenyl)-N-(3-methoxyphenyl)acrylamide]
Ki ([3]; competition with [3H]RTX (0.4 nM), 37°C, 60 min, read-out: Ki): 36 nM
IC50 (TRPV1 expressing neurons; [6]): 8.7 nM

C=C(C)[C@]12C[C@@H](C)[C@@]34O[C@](Cc5ccccc5)(O[C@@H]1[C@@H]3C=C(COC(=O)Cc1ccc(O)c(OC)c1)C[C@]1(O)C(=O)C(C)=C[C@@H]41)O2 [[^3H]-RTX, [^3H]-Resiniferatoxin]
Kd ([3]; saturation curve, [3H]-RTX 0.003-3 nM, 37°C, 60 min, mean (95% limits)): 0.21 nM

O=C(Nc1ccc(Cl)cc1)c1ccc(-c2cccc3cnccc23)[n+]([O-])c1 [Example V405]
body temperature change [1]: No significant temperature change
body temperature change ([1]; listed as compound 1): does not cause thermal increase
interaction with the evaluated cytochromes [4]: does not interact
Ki [3]: 203 nM
IC50 (CYP2C19): > 10 µM
IC50 (CYP2D6): > 10 µM
IC50 (CYP1A2): > 10 µM
IC50 (CYP2C9): > 10 µM
IC50 (CYP3A4): > 10 µM
IC50 (CYP2E1): > 10 µM
IC50 (TRPV1 expressing neurons; read-out: IC50 of inhibition of capsaicin-evoked [Ca2+]i mobilization; 0.1 µM capsaicin; mean and 95% fiducial limits): 15 nM
preventive effect against the pro-allodinic effect of capsaicin [5]: 55%
solubility thermodynamic at 36 h ([2]; 2160 min): 106.4 µM (≈ 40 µg/mL)
solubility thermodynamic at 36 h ([2]; phosphate buffer, pH 7.4, aqueous buffer): 106 µM (≈ 39.8 µg/mL)
